Data as given in publication PMC11974063 (BMC Medicine, 2025).

Target: Influenza HA2 protein
Assay type: binding

For `COCCOC(=O)C1=C(C)NC(C)=C(C(=O)OC/C=C/c2ccccc2)C1c1cccc([N+](=O)[O-])c1` (stereo not shown) [cilnidipine], the Kd was 32 nM.
